Assay results as given in US5876956A, “Methods for identification or purification of cells containing an enzymatic intracellular marker” (Johns Hopkins University School of Medicine, priority 1995, dated 1999).

Tests used:
L1210/CPA cells = test: Flow cytometry of dansyl fluorescence in cells incubated with the compound; assay type: cell-based, mouse; details: L1210/CPA cells incubated with 50 μM dansyl glycine alone, 10^6 cells/ml, 30 minutes, 37° C.; FIG. 1E
Protocol: In an attempt to examine cytosolic ALDH on a single-cell basis, leukemia cell lines and bone marrow cells were incubated with the fluorescent substrate DAAA, washed, and subjected to flow cytometry. The cell lines and plastic nonadherent mononuclear marrow cells were incubated with 50 μM DAAA at 10^6 cells/ml for 30 minutes at 37° C. After washing twice, some mononuclear marrow cells were treated with fluorescent monoclonal antibodies (Becton-Dickinson, Mountain View, Calif.), as previously described (M. B. Kastan et al., Blood 74:1517, 1989) to study cytosolic ALDH activity of CD34^+, CD19^+, and CD5^+ marrow cells. The cells were sorted on a Epics 753 Dual Laser Flow Cytometer (Coulter Electronics, Hialeah, Fla.) equipped with two 90-5 water cooled argon lasers (Coherent, Palo Alto, Calif.). Dansyl fluorescence was excited at both 351.1 nm and 363.8 nm using a multiline ultraviolet filter, and was detected at 521 nm. […]

cytosolic ALDH = details: J. E. Russo et al., Biochem Pharmacol 37:1639, 1988; cited from earlier work
cells = details: in vitro and in vivo; J. E. Russo et al., 1988; cited from earlier work
Mouse CFU-S (day 8) = Mouse CFU-S (day 8) of bone marrow cells isolated by DAAA and flow cytometry; assay type: in vivo
Protocol: (§1) In an attempt to examine cytosolic ALDH on a single-cell basis, leukemia cell lines and bone marrow cells were incubated with the fluorescent substrate DAAA, washed, and subjected to flow cytometry. The cell lines and plastic nonadherent mononuclear marrow cells were incubated with 50 μM DAAA at 10^6 cells/ml for 30 minutes at 37° C. After washing twice, some mononuclear marrow cells were treated with fluorescent monoclonal antibodies (Becton-Dickinson, Mountain View, Calif.), as previously described ([…] et al., Blood 74:1517, 1989) to study cytosolic ALDH activity of CD34^+, CD19^+, and CD5^+ marrow cells. […] Dansyl fluorescence was excited at both 351.1 nm and 363.8 nm using a multiline ultraviolet filter, and was detected at 521 nm. Cytosolic ALDH activity was estimated by the corrected mean fluorescence intensity (MFI) ([…] et al., Blood 75:1947, 1990; […], 1989, supra] of dansyl staining, which equals the mean fluorescence of unstained cells subtracted from the mean fluorescence of cells treated with DAAA. The mean fluorescence level represents the average channel value for a given sample on the flow cytometer. To confirm that cellular dansyl fluorescence was the result of the activity of cytosolic ALDH, L1210/CPA cells were incubated with 50 μM 4-(diethylamino) benzaldehyde (DEAB) for 15 minutes at 37° C. prior to the DAAA incubations to inhibit cytosolic ALDH activity. […]

Mouse CFU-GM = test: Growth of mouse bone marrow progenitors isolated by DAAA and flow cytometry; assay type: cell-based
Protocol: as §1

Human CFU-GM = test: Growth of human bone marrow hematopoietic progenitors after DAAA and flow cytometry; assay type: cell-based
Protocol: In an attempt to examine cytosolic ALDH on a single-cell basis, leukemia cell lines and bone marrow cells were incubated with the fluorescent substrate DAAA, washed, and subjected to flow cytometry. The cell lines and plastic nonadherent mononuclear marrow cells were incubated with 50 μM DAAA at 10^6 cells/ml for 30 minutes at 37° C. After washing twice, some mononuclear marrow cells were treated with fluorescent monoclonal antibodies (Becton-Dickinson, Mountain View, Calif.), as previously described ([…] et al., Blood 74:1517, 1989) to study cytosolic ALDH activity of CD34^+, CD19^+, and CD5^+ marrow cells. The cells were sorted on a Epics 753 Dual Laser Flow Cytometer (Coulter Electronics, Hialeah, Fla.) equipped with two 90-5 water cooled argon lasers (Coherent, Palo Alto, Calif.). Dansyl fluorescence was excited at both 351.1 nm and 363.8 nm using a multiline ultraviolet filter, and was detected at 521 nm. Cytosolic ALDH activity was estimated by the corrected mean fluorescence intensity (MFI) ([…] et al., Blood 75:1947, 1990; […], 1989, supra] of dansyl staining, which equals the mean fluorescence of unstained cells subtracted from the mean fluorescence of cells treated with DAAA. The mean fluorescence level represents the average channel value for a given sample on the flow cytometer. To confirm that cellular dansyl fluorescence was the result of the activity of cytosolic ALDH, L1210/CPA cells were incubated with 50 μM 4-(diethylamino) benzaldehyde (DEAB) for 15 minutes at 37° C. prior to the DAAA incubations to inhibit cytosolic ALDH activity. […] (J. E. Russo et al., Biochem Pharmacol 37:1639, 1988) L1210/CPA cells were also incubated with 50 μM dansyl glycine (DG) alone (Sigma, St. Louis, Mo.) at 10^6 cells/ml for 30 minutes at 37° C. […] The data in Table 1 show the results of flow cytometry sorting of human and mouse marrow cells based on their fluorescence intensity after incubation with DAAA. The assays of progenitor content is also shown. Isolation of bone marrow cells with high ALDH expression by fluorescence sorting based on DAAA was enriched for hematopoietic progenitors capable of both in vitro and in vivo growth. The 5% of human bone marrow cells with highest dansyl fluorescence produced substantially more CFU-GM than the 5% of cells with lowest dansyl fluorescence (p=0.007, T-test). Similarly, using DAAA-derived fluorescence, it was possible to obtain a composition that is enriched for CFU-GM (p=0.03) and the more primitive CFU-S (p=0.01) from mouse bone marrow.

[1] = 5% cells with the highest fluorescence after DAAA
[2] = 5% of cells with the lowest fluorescence after DAAA

## CN(C)c1cccc2c(S(=O)(=O)NCC(=O)O)cccc12 [dansyl glycine]
L1210/CPA cells
  dansyl fluorescence of cells: no detectable fluorescence

## CCN(CC)c1ccc(C=O)cc1 [DEAB, 4-(diethylamino) benzaldehyde]
Cytosolic ALDH
  inhibition of cytosolic ALDH: specific, competitive inhibitor of cytosolic ALDH
cells
  toxicity to cells: nontoxic to cells in vitro and in vivo

## CN(C)c1cccc2c(S(=O)(=O)NCC=O)cccc12 [DAAA, N-dansyl aminoacetaldehyde]
Mouse CFU-S (day 8); [1]
  Colonies/10^5 cells, Mouse CFU-S (day 8), Dansyl+: 23.5 ± 1 Colonies/10^5 cells
Mouse CFU-S (day 8); [2]
  Colonies/10^5 cells, Mouse CFU-S (day 8), Dansyl-: 7 ± 1.3 Colonies/10^5 cells
Mouse CFU-GM; [1]
  Colonies/10^5 cells, Mouse CFU-GM, Dansyl+: 800 ± 185 Colonies/10^5 cells
Mouse CFU-GM; [2]
  Colonies/10^5 cells, Mouse CFU-GM, Dansyl-: 250 ± 60 Colonies/10^5 cells
Human CFU-GM; [1]
  Colonies/10^5 cells, Human CFU-GM, Dansyl+ MNMC: 216 ± 13 Colonies/10^5 cells
Human CFU-GM; [2]
  Colonies/10^5 cells, Human CFU-GM, Dansyl- MNMC: 67 ± 20 Colonies/10^5 cells
Human CFU-GM; human bone marrow cells treated with DAAA and processed by flow cytometry (not sorted)
  harm to cells / progenitor growth after DAAA treatment: did not appear to harm cells
Human CFU-GM; mononuclear marrow cells incubated with DAAA and processed (but not sorted) by flow cytometry, unstained MNMC 163 ± 5
  Colonies/10^5 cells, Human CFU-GM, Stained MNMC: 155 ± 5 Colonies/10^5 cells
